As usually defined, the pIC50 is −log10 of the IC50, conventionally taken in molar units.

This is an account of results in patent publication US20240376124A1, “Macrocyclic Kinase Inhibitors” (Incyte Corporation, priority 2023, published 2024).

pIC50: −log10 of the molar value.

For data set [1] the following is noted: from [2H]C([2H])([2H])n1c(=O)n([C@H]2CC[C@@](CC=C)(NC(=O)[C@H]3C[C@H]3F)CC2)c2c3c(-c4ccc(OCCC=C)cc4)cn(S(=O)(=O)c4ccccc4)c3ncc21, rcm bond, Grubbs catalyst 2nd generation, dichloromethane, 19.0 mM, 40.0 °C.
In data set [2] the target is T1, catalytic domain (JH1, amino acids 808-1132) of human JAK2 (Homo sapiens, UniProt O60674).
T1 construct: catalytic domain (JH1, amino acids 808-1132) of human JAK2; His (N); purchased BPS Bioscience 40450; host or cells: baculovirus expression system
T1 sequence (O60674 808-1132): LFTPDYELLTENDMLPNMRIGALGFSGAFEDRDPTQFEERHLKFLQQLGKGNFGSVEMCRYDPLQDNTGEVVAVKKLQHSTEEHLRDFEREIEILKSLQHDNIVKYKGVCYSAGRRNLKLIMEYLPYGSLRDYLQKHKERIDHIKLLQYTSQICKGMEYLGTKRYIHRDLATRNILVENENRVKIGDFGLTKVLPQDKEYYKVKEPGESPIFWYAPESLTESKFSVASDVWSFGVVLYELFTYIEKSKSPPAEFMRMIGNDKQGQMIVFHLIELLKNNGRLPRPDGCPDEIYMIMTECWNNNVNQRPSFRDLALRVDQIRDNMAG
In words: JAK2 HTRF Enzyme Activity Assay. The note with it: ATP 30 μM; read-out: ENZ 30UMATP IC50. It counts as biochemical. How it is done:
Example D. JAK2 HTRF Enzyme Activity Assay
JAK2 enzyme activity assays utilize catalytic domain (JH1, amino acids 808-1132) of human JAK2 expressed as N-terminal His-tagged protein in a baculovirus expression system (BPS Bioscience, Catalog #40450). The assays was conducted in black 384-well polystyrene plates in a final reaction volume of 20 μL. JAK2 (0.015 nM) was incubated with compounds (100 nL serially diluted in DMSO) in the presence of ATP (30 μM or 1 mM) and 500 nM Biotin-labeled EQEDEPEGDYFEWLE (SEQ ID NO.: 1) peptide (BioSource International, custom synthesis) in assay buffer (50 mM Tris, pH=7.5, 10 mM MgCl2, 0.01% Brij-35, 0.1% BSA, 1 mM EGTA, 5% Glycerol and 5 mM DTT) for 60 minutes at 25° C. The reactions were stopped by the addition of 10 μL of detection buffer (50 mM Tris, pH 7.8, 0.5 mg/mL BSA, 150 mM NaCl), supplemented with EDTA, LANCE Eu-W1024 anti-phosphotyrosine (PY20), (PerkinElmer, Catalog #AD0067) and Streptavidin SureLight APC (PerkinElmer Catalog #CR130-100), for a final concentration of 15 mM, 1.5 nM and 75 nM, respectively. HTRF signals were read after 30 minutes incubation at room temperature on a PHERAstar FS plate reader (BMG LABTECH). Data was analyzed with IDBS XLfit and GraphPad Prism 5.0 software using a four parameter dose response curve to determine IC50 for each compound. The compounds of the disclosure were tested in one or more of the assays described in Examples A-D, and the resulting data are shown in Table A.
In general terms: TR-FRET usually uses a lanthanide donor and a delayed reading to cut background.

For data set [3], the target named is T2, pseudo-kinase domain (JH2, amino-acids 536-812) of human V617F mutant JAK2 (Homo sapiens, UniProt O60674, F794H/V617F/W659A/W777A).
T2 construct: pseudo-kinase domain (JH2, amino-acids 536-812 with 3 surface mutations W659A, W777A, F794H); His (C); purchased BPS Bioscience 79498; host or cells: baculovirus expression system
T2 sequence (O60674 536-812 V617F/W659A/W777A/F794H): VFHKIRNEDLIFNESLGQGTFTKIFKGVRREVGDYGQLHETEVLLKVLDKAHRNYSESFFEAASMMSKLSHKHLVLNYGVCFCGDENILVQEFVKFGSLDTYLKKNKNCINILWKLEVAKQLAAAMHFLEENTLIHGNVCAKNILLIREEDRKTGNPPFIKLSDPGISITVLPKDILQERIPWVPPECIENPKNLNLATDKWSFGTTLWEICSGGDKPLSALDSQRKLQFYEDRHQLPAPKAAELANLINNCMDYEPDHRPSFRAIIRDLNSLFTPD
In words: JAK2 LanthaScreen JH2-V617F Binding Assay. The note with it: 50 nM tracer, read-out: JH2BINDING—V617F IC50. Here is the method: Example C. JAK2 LanthaScreen JH2-V617F Binding Assay
(§1) JAK2 JH2-V617F binding assay utilizes pseudo-kinase domain (JH2, amino-acids 536-812 with 3 surface mutations W659A, W777A, F794H) of human V617F mutant JAK2 expressed as C-terminal His-Avi-tagged, biotinylated protein in a baculovirus expression system (BPS Bioscience, Catalog #79498). The assay was conducted in black 384-well polystyrene plates in a final reaction volume of 20 μL. JAK2 JH2-V617F (0.26 nM) was incubated with compounds (100 nL serially diluted in DMSO) in the presence of 50 nM Fluorescent JAK2-JH2 Tracer (MedChem Express Catalog #HY-102055) and 0.25 nM Streptavidin-Tb cryptate (Cisbio Part #610SATLB) in assay buffer (50 mM Tris, pH=7.5, 10 mM MgCl2, 0.01% Brij-35, 0.1% BSA, 1 mM EGTA, 5% Glycerol and 5 mM DTT). Non-specific binding was accessed in the presence of 2 mM ATP. After incubation for 1 hour at 25° C., LanthaScreen signals were read on a PHERAstar FS plate reader (BMG LABTECH). Data was analyzed with IDBS XLfit and GraphPad Prism 5.0 software using a four parameter dose response curve to determine IC50 for each compound.

The target of data set [4] is T3, catalytic domain (JH1, amino acids 826-1132) of human JAK2 (Homo sapiens, UniProt O60674).
T3 construct: catalytic domain (JH1, amino acids 826-1132) of human JAK2; FLAG (N); purchased Carna Biosciences 08-445-20N; host or cells: baculovirus expression system
T3 sequence (O60674 826-1132): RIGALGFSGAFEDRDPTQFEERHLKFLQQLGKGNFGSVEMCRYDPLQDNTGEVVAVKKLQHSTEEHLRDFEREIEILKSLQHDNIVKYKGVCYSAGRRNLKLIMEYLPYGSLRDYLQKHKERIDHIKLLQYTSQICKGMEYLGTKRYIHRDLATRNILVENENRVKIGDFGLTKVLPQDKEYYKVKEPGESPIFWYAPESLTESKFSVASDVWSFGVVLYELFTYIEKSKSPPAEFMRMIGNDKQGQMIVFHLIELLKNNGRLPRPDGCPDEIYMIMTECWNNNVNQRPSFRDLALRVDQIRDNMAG
In words: JAK2 LanthaScreen JH1 binding assay. The settings on record: JAK2 JH1, 50 nM tracer; read-out: JH1BIND IC50. Here is the method: Example A. JAK2 LanthaScreen […] Binding Assay
JAK2 JH1 binding assay utilizes catalytic domain (JH1, amino acids 826-1132) of human JAK2 expressed as N-terminal FLAG-tagged, biotinylated protein in a baculovirus expression system (Carna Biosciences, Product #08-445-20N). The assay was conducted in black 384-well polystyrene plates in a final reaction volume of 20 μL. JAK2 JH1 (1.5 nM) was incubated with compounds (100 nL serially diluted in DMSO) in the presence of 50 nM fluorescent JAK2-JH1 tracer and 0.5 nM Streptavidin-Tb cryptate (Cisbio Part #610SATLB) in assay buffer (50 mM Tris, pH=7.5, 10 mM MgCl2, 0.01% Brij-35, 0.1% BSA, 1 mM EGTA, […] and 5 mM DTT). Non-specific binding was accessed in the presence of 2 mM ATP. After incubation for 2 hours at 25° C., LanthaScreen signals were read on a PHERAstar FS plate reader (BMG LABTECH).
Data was analyzed with IDBS XLfit and GraphPad Prism 5.0 software using a four parameter dose response curve to determine IC50 for each compound.

Data set [5] addresses T4, pseudo-kinase domain (JH2, amino-acids 536-812) of human Wild Type JAK2 (Homo sapiens, UniProt O60674, F794H/W659A/W777A).
T4 construct: pseudo-kinase domain (JH2, amino-acids 536-812 with 3 surface mutations W659A, W777A, F794H); His (C); purchased BPS Bioscience 79463; host or cells: baculovirus expression system
In words: JAK2 LanthaScreen JH2-WT Binding Assay. The settings on record: 50 nM tracer, read-out: JH2BIND_WT IC50. Here is the method: Example B. JAK2 LanthaScreen JH2-WT Binding Assay
as §1, with “JH2-WT” for “JH2-V617F”, “Wild Type” for “V617F mutant”, “#79463).” for “#79498).”, “JH2-WT (0.145” for “JH2-V617F (0.26”

T4 sequence (O60674 536-812 W659A/W777A/F794H): as the sequence (O60674 536-812 V617F/W659A/W777A/F794H) above, with F82V counted along it

The compound `[2H]C([2H])([2H])n1c(=O)n2c3c4c(cn(S(=O)(=O)c5ccccc5)c4ncc31)-c1ccc(cc1)OCCC=CC[C@]1(NC(=O)[C@H]3C[C@H]3F)CC[C@@H]2CC1` came in with a ring closure, yield of all isomers in data set [1] of 98%.
Regarding `[2H]C([2H])([2H])n1c(=O)n2c3c4c(c(-c5cnn(CC(F)F)c5)[nH]c4ncc31)-c1ccc(cc1)OCC/C=C/C[C@]1(NC(=O)[C@H]3C[C@H]3F)CC[C@@H]2CC1` [Example 11, (1R,2R)-N-((3^1S,3^4s,E)-2^7-(1-(2,2-difluoroethyl)-1H-pyrazol-4-yl)-2^3-(methyl-d3)-2^2-oxo-2^1,2^2,2^3,2^6-tetrahydro-9-oxa-2(8,1)-imidazo[4,5-d]pyrrolo[2,3-b]pyridina-1(1,4)-benzena-3(1,4)-cyclohexanacyclononaphan-5-en-3^4-yl)-2-fluorocyclopropane-1-carboxamide], the pIC50 in data set [2] was less than 6.00; in data set [3], no less than 8.00; in data set [4], 6.00 to 6.30; in data set [5] it was no less than 8.00.
`[2H]C([2H])([2H])n1c(=O)n2c3c4c(c(-c5cn(C)nc5OC)[nH]c4ncc31)-c1ccc(cc1)OCCC/C=C/C[C@]1(NC(=O)C3CC3)CC[C@@H]2CC1` [Example 3, N-((3^1s,3^4s,E)-2^7-(3-Methoxy-1-methyl-1H-pyrazol-4-yl)-2^3-(methyl-d3)-2^2-oxo-2^1,2^2,2^3,2^6-tetrahydro-10-oxa-2(8,1)-imidazo[4,5-d]pyrrolo[2,3-b]pyridina-1(1,4)-benzena-3(1,4)-cyclohexanacyclodecaphan-5-en-3^4-yl)cyclopropanecarboxamide]: the pIC50 was less than 6.00 in data set [2], no less than 8.00 in data set [3], less than 6.00 in data set [4] and no less than 8.00 in data set [5].
Turning to `[2H]C([2H])([2H])n1c(=O)n2c3c4c(c(-c5cn(C)nc5OC)[nH]c4ncc31)-c1ccc(cc1)C1(/C=C/C[C@]3(NC(=O)C4CC4)CC[C@@H]2CC3)CC1` [Example 6, N-((1′s,4′s,E)-7′-(3-Methoxy-1-methyl-1H-pyrazol-4-yl)-3′-(methyl-d3)-2′-oxospiro[cyclopropane-1,7′-2(8,1)-imidazo[4,5-d]pyrrolo[2,3-b]pyridina-1(1,4)-benzena-3(1,4)-cyclohexanacycloheptaphanen]-5′-en-4′-yl)cyclopropanecarboxamide], the pIC50 in data set [2] was less than 6.00; in data set [3], no less than 8.00; in data set [4], less than 6.00; in data set [5] it was no less than 8.00.
For `[2H]C([2H])([2H])n1c(=O)n2c3c4c(c(-c5cnn(CCOC)c5)[nH]c4ncc31)-c1ccc(cc1)OCC/C=C/C[C@]1(NC(=O)[C@H]3C[C@H]3F)CC[C@@H]2CC1` [Example 8, (1R,2R)-2-Fluoro-N-((3^1S,3^4s,E)-2^7-(1-(2-methoxyethyl)-1H-pyrazol-4-yl)-2^3-(methyl-d3)-2^2-oxo-2^1,2^2,2^3,2^6-tetrahydro-9-oxa-2(8,1)-imidazo[4,5-d]pyrrolo[2,3-b]pyridina-1(1,4)-benzena-3(1,4)-cyclohexanacyclononaphan-5-en-3^4-yl)cyclopropane-1-carboxamide], the negative logarithm of the IC50 (pIC50) is 6.00 to 6.30 in data set [2], no less than 8.00 in data set [3], 6.00 to 6.30 in data set [4] and no less than 8.00 in data set [5].
On to `[2H]C([2H])([2H])n1c(=O)n2c3c4c(c(-c5cn(C)nc5OC)[nH]c4ncc31)-c1ccc(cc1)CNCC[C@]1(NC(=O)C3CC3)CC[C@@H]2CC1` [Example 7, N-((3^1s,3^4s)-2^7-(3-Methoxy-1-methyl-1H-pyrazol-4-yl)-2^3-(methyl-d)-2^2-oxo-2^1,2^2,2^3,2^6-tetrahydro-6-aza-2(8,1)-imidazo[4,5-d]pyrrolo[2,3-b]pyridina-1(1,4)-benzena-3(1,4)-cyclohexanacycloheptaphane-3^4-yl)cyclopropanecarboxamide], for which the pIC50 in data set [2] was less than 6.00; in data set [3] it was 7.00 to 8.00; in data set [4] it was less than 6.00; in data set [5], no less than 8.00.
`[2H]C([2H])([2H])n1c(=O)n2c3c4c(c(-c5cn(C(C)C)nc5F)[nH]c4ncc31)-c1ccc(cc1)OCC/C=C/C[C@]1(NC(=O)[C@H]3C[C@H]3F)CC[C@@H]2CC1` [Example 13, (1R,2R)-2-fluoro-N-((3^1S,3^4s,E)-2^7-(3-fluoro-1-isopropyl-1H-pyrazol-4-yl)-2^3-(methyl-d3)-2^2-oxo-2^1,2^2,2^3,2^6-tetrahydro-9-oxa-2(8,1)-imidazo[4,5-d]pyrrolo[2,3-b]pyridina-1(1,4)-benzena-3(1,4)-cyclohexanacyclononaphan-5-en-3^4-yl)cyclopropane-1-carboxamide]: the pIC50 in data set [2] was less than 6.00; in data set [3], no less than 8.00; in data set [4], less than 6.00; in data set [5], no less than 8.00.
“N-((3^1r,3^4s)-2^7-(3-Methoxy-1-methyl-1H-pyrazol-4-yl)-2^3-(methyl-d3)-2^2-oxo-2^1,2^2,2^3,2^6-tetrahydro-8-oxa-2(8,1)-imidazo[4,5-d]pyrrolo[2,3-b]pyridina-1(1,4)-benzena-3(1,4)-cyclohexanacyclooctaphane-3^4-yl)cyclopropanecarboxamide [Example 5]”: the pIC50 in data set [2] was less than 6.00; in data set [3], no less than 8.00; in data set [4] it was less than 6.00; in data set [5], no less than 8.00.
